| Compound | melting point |
| --- | --- |
| Cc1ccc(Nc2nc3ccccc3o2)cc1Nc1ncc(-c2ccc(C#N)cc2)o1 [Compound 002, 4-{2-[5-(Benzooxazol-2-ylamino)-2-methyl-phenylamino]-oxazol-5-yl}-benzonitrile] | 236 °C |
| CC(=O)c1ccc(C)c(Nc2ncc(-c3ccc(C#N)cc3)o2)c1 [Compound 018, 4-[2-(5-Acetyl-2-methyl-phenylamino)-oxazol-5-yl]-benzonitrile] | 240 °C |
| Cc1ccc(N2CCN(c3cccc(C#N)c3)C2=O)cc1Nc1ncc(-c2ccc(C#N)cc2)o1 [Compound 012, 4-(2-{5-[3-(3-cyano-phenyl)-2-oxo-imidazolidin-1-yl]-2-methyl-phenylamino}-oxazol-5-yl)-benzonitrile] | > 260 °C |
| Cc1ccc(N(C)CC(=O)c2ccc(C#N)cc2)cc1Nc1ncc(-c2ccncc2)o1 [Compound 025, 4-({Methyl-[4-methyl-3-(5-pyridin-4-yl-oxazol-2-ylamino)-phenyl]-amino}-acetyl)-benzonitrile] | 218 °C |
| Cc1ccc(C(=O)CCc2cccc(F)c2)cc1Nc1ncc(-c2ccc(C#N)cc2)o1 [Compound 021, 4-(2-{5-[3-(3-Fluoro-phenyl)-propionyl]-2-methyl-phenylamino}-oxazol-5-yl)-benzonitrile] | 157 °C |
| Cc1ccc(Nc2nc3ccccc3o2)cc1Nc1ncc(-c2cccnc2)o1 [Compound 004, N1-Benzooxazol-2-yl-4-methyl-N3-(5-pyridin-3-yl-oxazol-2-yl)-benzene-1,3-diamine] | 238 °C |
| Cc1ccc(Nc2nc3ccccc3s2)cc1Nc1ncc(-c2ccc(C#N)cc2)o1 [Compound 003, 4-{2-[5-(Benzothiazol-2-ylamino)-2-methyl-phenylamino]-oxazol-5-yl}-benzonitrile] | 216 to 220 °C |
| Cc1ccc(N2CCN(c3cccc(F)c3)C2=O)cc1Nc1ncc(-c2ccc(C(N)=O)cc2)o1 [Compound 013, 4-(2-{5-[3-(3-Fluoro-phenyl)-2-oxo-imidazolidin-1-yl]-2-methyl-phenylamino}-oxazol-5-yl)-benzamide] | > 260 °C |
| Cc1ccc(NS(=O)(=O)Cc2ccccc2)cc1Nc1ncc(-c2ccncc2)o1 [Compound 001, N-[4-Methyl-3-(5-pyridin-4-yl-oxazol-2-ylamino)-phenyl]-C-phenyl-methane sulfonamide] | 258 °C |
| Cc1ccc(NCC(=O)c2ccccc2)cc1Nc1ncc(-c2ccncc2)o1 [Compound 026, 2-[4-Methyl-3-(5-pyridin-4-yl-oxazol-2-ylamino)-phenylamino]-1-phenyl-ethanone] | 152 °C |
| Cc1ccc(Nc2nc3cc(Cl)ccc3o2)cc1Nc1ncc(-c2ccncc2)o1 [Compound 005, N1-(5-Chloro-benzooxazol-2-yl)-4-methyl-N3-(5-pyridin-4-yl-oxazol-2-yl)-benzene-1,3-diamine] | 229 °C |
| Cc1ccc(C(=O)CCc2ccccc2)cc1Nc1ncc(-c2ccncc2)o1 [Compound 017, 1-[4-Methyl-3-(5-pyridin-4-yl-oxazol-2-ylamino)-phenyl]-3-phenyl-propan-1-one] | 138 °C |
| Cc1ccc(Nc2nc3cc(F)ccc3o2)cc1Nc1ncc(-c2ccncc2)o1 [Compound 009, N1-(5-Fluoro-benzooxazol-2-yl)-4-methyl-N3-(5-pyridin-4-yl-oxazol-2-yl)-benzene-1,3-diamine] | 170 °C |
| Cc1ccc(NCC(=O)c2ccc(F)cc2)cc1Nc1ncc(-c2ccncc2)o1 [Compound 023, 1-(4-Fluoro-phenyl)-2-[4-methyl-3-(5-pyridin-4-yl-oxazol-2-ylamino)-phenylamino]-ethanone] | 202 °C |
| CC(=O)c1ccc(C)c(Nc2ncc(-c3ccc(C(N)=O)cc3)o2)c1 [Compound 022, 4-[2-(5-Acetyl-2-methyl-phenylamino)-oxazol-5-yl]-benzamide] | > 260 °C |
| CCS(=O)(=O)c1ccc2oc(Nc3ccc(C)c(Nc4ncc(-c5ccncc5)o4)c3)nc2c1 [Compound 007, N1-(5-Ethanesulfonyl-benzooxazol-2-yl)-4-methyl-N3-(5-pyridin-4-yl-oxazol-2-yl)-benzene-1,3-diamine] | 252 °C |
| Cc1ccc(N2CCN(c3cccc(F)c3)C2=O)cc1Nc1ncc(-c2ccc(C#N)cc2)o1 [Compound 011, 4-(2-{5-[3-(3-Fluoro-phenyl)-2-oxo-imidazolidin-1-yl]-2-methyl-phenylamino}-oxazol-5-yl)-benzonitrile] | 221 °C |
| Cc1ccc(Nc2nc3ccc(Cl)cc3o2)cc1Nc1ncc(-c2ccncc2)o1 [Compound 006, N1-(6-Chloro-benzooxazol-2-yl)-4-methyl-N3-(5-pyridin-4-yl-oxazol-2-yl)-benzene-1,3-diamine] | > 260 °C |
| Cc1ccc(N2CCN(c3cccc(C(F)(F)F)c3)C2=O)cc1Nc1ncc(-c2ccncc2)o1 [Compound 015, 1-[4-Methyl-3-(5-pyridin-4-yl-oxazol-2-ylamino)-phenyl]-3-(3-trifluoromethyl-phenyl)-imidazolidin-2-one] | 198 to 200 °C |
| Cc1ccc(NCC(=O)c2ccc(F)cc2)cc1Nc1ncc(-c2ccc(C#N)cc2)o1 [Compound 027, 4-(2-{5-[2-(4-Fluoro-phenyl)-2-oxo-ethylamino]-2-methyl-phenylamino}-oxazol-5-yl)-benzonitrile] | 199 °C |
| Cc1ccc(C(=O)CCc2ccc(F)cc2)cc1Nc1ncc(-c2ccc(C#N)cc2)o1 [Compound 019, 4-(2-{5-[3-(4-Fluoro-phenyl)-propionyl]-2-methyl-phenylamino}-oxazol-5-yl)-benzonitrile] | 175 °C |
| Cc1ccc(C(=O)CCc2ccccc2)cc1Nc1ncc(-c2ccc(C#N)cc2)o1 [Compound 020, 4-{2-[2-Methyl-5-(3-phenyl-propionyl)-phenylamino]-oxazol-5-yl}-benzonitrile] | 138 °C |
| Cc1ccc(Nc2nc3ccc(F)cc3o2)cc1Nc1ncc(-c2ccncc2)o1 [Compound 010, N1-(6-Fluoro-benzooxazol-2-yl)-4-methyl-N3-(5-pyridin-4-yl-oxazol-2-yl)-benzene-1,3-diamine] | 260 °C |
| Cc1ccc(N(C)CC(=O)c2ccc(F)cc2)cc1Nc1ncc(-c2ccncc2)o1 [Compound 024, 1-(4-Fluoro-phenyl)-2-{methyl-[4-methyl-3-(5-pyridin-4-yl-oxazol-2-ylamino)-phenyl]-amino}-ethanone] | 230 °C |
